pKd: −log10 of the molar value. Read-outs that look alike come from different tables or passages of the source.
What was measured:
[1] = Plasma protein binding by rapid equilibrium dialysis, mouse plasma
Method: (§1) 5. Methods for In vitro characterizations of HYL001 […]
(§2) Rapid equilibrium dialysis was performed in triplicates with a rapid equilibrium dialysis (RED) by Sai Life Sciences Lt. (Telangana, India). The RED device contains a dialysis membrane with a molecular weight cut -off […]
(§3) of 8,000 Da, separating two chambers for plasma and buffer, respectively. […]
(§4) were added to the plasma chamber, versus phosphate buffer saline (pH 7.4) to the buffer chamber. Dialysis was performed for 4 h with 100 RPM shaking at 37 °C. […]
(§5) compounds in plasma were either frozen immediately (T0 sample), or incubated at 37 °C for 4 h without dialysis (non-dialysed), respectively.
(§6) Following dialysis, an aliquot was removed from either chamber and diluted with equal volume of opposite matrix to nullify the matrix effect. Similarly, buffer was added to recovery and stability samples. Next, acetonitrile (containing internal standard, glipizide) was added to the mixtures for protein precipitation and vortexed for 5 minutes. The samples were centrifuged at 4000 RPM at 4 °C for 10 min and the supernatant was submitted for liquid chromatography mass spectrometry (LC-MS/MS) analysis. Samples were monitored for parent compound using multiple reaction monitoring (MRM) mode.
(§7) The peak area ratios (PAR, analyte versus internal standard) in plasma vs bufffer were used to determine the fraction of compound bound to plasma proteins. The following equation was used to determine the extent of plasma protein binding: percent free drug = 100% x (PARbuffer / PARplasma); percent bound drug = 100 - % free drug. Recovery was calculated as 100% x (PARplasma + PARbuffer)dialysed / (PARplasma)non-dialysed; stability as 100% x (PAR)non-dialysed / (PARplasma)frozen at T0. […]

[2] = tested on: panel of key proteins (cell receptors, neurotransmitter transporters, and ion channels); assay: In vitro safety pharmacology, binding (SafetyScreen 44); settings: 10 μM HYL001
Method: To identify potential adverse off-target drug interactions and derisk the development of HYL001 as a drug,[22] we performed binding and enzymatic inhibition assays with a panel of key proteins (mainly cell receptors, neurotransmitter transporters, and ion channels). […]
analysis by LC-MS/MS, using MRM mode. […]
related to phase I and phase II metabolism, respectively.
The PARs were used for calculation of metabolic stability. The 0 min area ratio was considered as 100%. The […]
incubation volume / number of cells (in millions) x K e. To calculate into full body context, the values of 120 […]
In vitro safety pharmacology […]
compared with historical values determined at Eurofins. Binding was defined as the % inhibition of the signal […]
enzyme activity. […] Results showing
The tail current amplitude, induced by a one […]
and expressed as % inhibition.
The Ames test was performed at Xenomatrix (Allschwil, Switzerland). Bacteria from the S. typhimurium

[3] = Plasma protein binding by rapid equilibrium dialysis, human plasma; settings: for fraction unbound at 4 h, 5 µM: plasma
Method: as §1, §2, §3, §4, §5, §6, §7

[4] = Plasma pharmacokinetics after single oral administration in mice; assay type: in vivo; settings: male, mouse, 71 mg/kg
Method: We assessed the in vivo pharmacokinetic properties of HYL001 after a single oral administration (dose of 71 mg/kg) in BALB/c mice as well as in Sprague–Dawley (SD) Rats. Liquid chromatography–tandem mass spectrometry (LC/MS/MS) was used for the determination of HYL001 in plasma (Figure S2 and Table 2).
6. Methods for in vivo characterizations of HYL001 […]
WinNonlin software (Version 8.0) […]

ALK6 (BMPR1B) = molecular target: T1, ALK6 (BMPR1B) (Homo sapiens, UniProt O00238); assay: KINOMEscan competitive binding assay (Kd); settings: analyses herein; read-out: Binding constant (Kd) ALK6 (BMPR1B)
T1 construct: purchased Eurofins/DiscoveryX (KINOMEscan service)
Description: (§8) 5. Methods for In vitro characterizations of HYL001
(§9) Kinase affinity and selectivity
(§10) Kd values were obtained by an 11 -point
(§11) (BMPR1A), ALK4 (ACVR1B), ALK6 (BMPR1B), ACVR2B and TGFβ R2. […]

TGFBR2 = molecular target: T2, TGFBR2 (Homo sapiens, UniProt P37173); assay: KINOMEscan competitive binding assay (Kd); settings: analyses herein; read-out: Binding constant (Kd) TGFBR2
T2 construct: purchased Eurofins/DiscoveryX (KINOMEscan service)
Description: as §8, §9, §10, §11

ACVR2B [5] = molecular target: T3, ACVR2B (Homo sapiens, UniProt Q13705); assay: KINOMEscan competitive binding assay (Kd); settings: analyses herein; read-out: Binding constant (Kd) ACVR2B
T3 construct: purchased Eurofins/DiscoveryX (KINOMEscan service)
Description: as §8, §9, §10, §11

ALK1 (ACVRL1) [6] = molecular target: T4, ALK1 (ACVRL1) (Homo sapiens, UniProt P37023); assay: KINOMEscan competitive binding assay (Kd); settings: analyses herein; read-out: Binding constant (Kd) ALK1 (ACVRL1)
T4 construct: purchased Eurofins/DiscoveryX (KINOMEscan service)
Description: as §8, §9, §10, §11

ALK3 (BMPR1A) [7] = molecular target: T5, ALK3 (BMPR1A) (Homo sapiens, UniProt P36894); assay: KINOMEscan competitive binding assay (Kd); settings: analyses herein; read-out: Binding constant (Kd) ALK3 (BMPR1A)
T5 construct: purchased Eurofins/DiscoveryX (KINOMEscan service)
Description: as §8, §9, §10, §11

hERG potassium channel = hERG potassium channel (Homo sapiens, UniProt Q12809); assay: hERG automated patch clamp on CHO-K1 cells; settings: micromolar concentrations
Method: clamp (Eurofins, Celle L’Evescault, France) on CHO -K1 cells. The tail current amplitude, induced by a one
second test pulse to -40 mV after a two second pulse to +20 mV, was measured before and aft er drug incubation

[8] = Plasma protein binding by rapid equilibrium dialysis, rat plasma
Method: as §1, §2, §3, §4, §5, §6, §7

ALK3 (BMPR1A) [9] = molecular target: T5, ALK3 (BMPR1A); set-up: method as in earlier work; settings: reported data ref 15; read-out: Binding constant (Kd) ALK3 (BMPR1A); cited from earlier work
[10] = Literature oral pharmacokinetics in mice; assay type: in vivo; settings: female, mouse, plasma, mice (♀ CD-1), 75 mg/kg, estimated using AUClast of ref 20
Description: Table 2 Pharmacokinetics of HYL001 in Preclinical Species after Oral Administration ^a | column: Cl/F (mL/min/kg)

ACVR2B [11] = molecular target: T3, ACVR2B; set-up: method as in earlier work; settings: reported data ref 15; read-out: Binding constant (Kd) ACVR2B; cited from earlier work
ALK1 (ACVRL1) [12] = molecular target: T4, ALK1 (ACVRL1); set-up: method as in earlier work; settings: reported data ref 15; read-out: Binding constant (Kd) ALK1 (ACVRL1); cited from earlier work
ALK2 (ACVR1) = molecular target: T6, ALK2 (ACVR1) (Homo sapiens, UniProt Q04771); set-up: method as in earlier work; settings: reported data ref 15; read-out: Binding constant (Kd) ALK2 (ACVR1); cited from earlier work
T6 construct: purchased Eurofins/DiscoveryX (KINOMEscan service)
T6 sequence (Q04771 21-509): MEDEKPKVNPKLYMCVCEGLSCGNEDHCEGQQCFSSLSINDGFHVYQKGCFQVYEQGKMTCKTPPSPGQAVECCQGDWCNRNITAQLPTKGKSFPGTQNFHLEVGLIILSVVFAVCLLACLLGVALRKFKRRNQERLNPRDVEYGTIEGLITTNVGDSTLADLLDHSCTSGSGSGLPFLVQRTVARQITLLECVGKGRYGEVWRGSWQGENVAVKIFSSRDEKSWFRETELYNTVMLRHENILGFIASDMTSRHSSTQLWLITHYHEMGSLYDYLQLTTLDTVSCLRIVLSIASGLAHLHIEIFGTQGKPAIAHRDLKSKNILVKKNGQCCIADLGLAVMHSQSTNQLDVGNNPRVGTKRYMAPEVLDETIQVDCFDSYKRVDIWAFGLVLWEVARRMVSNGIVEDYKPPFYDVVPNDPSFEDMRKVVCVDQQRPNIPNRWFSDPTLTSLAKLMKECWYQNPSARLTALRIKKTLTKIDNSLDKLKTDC

T4 sequence (P37023 22-503): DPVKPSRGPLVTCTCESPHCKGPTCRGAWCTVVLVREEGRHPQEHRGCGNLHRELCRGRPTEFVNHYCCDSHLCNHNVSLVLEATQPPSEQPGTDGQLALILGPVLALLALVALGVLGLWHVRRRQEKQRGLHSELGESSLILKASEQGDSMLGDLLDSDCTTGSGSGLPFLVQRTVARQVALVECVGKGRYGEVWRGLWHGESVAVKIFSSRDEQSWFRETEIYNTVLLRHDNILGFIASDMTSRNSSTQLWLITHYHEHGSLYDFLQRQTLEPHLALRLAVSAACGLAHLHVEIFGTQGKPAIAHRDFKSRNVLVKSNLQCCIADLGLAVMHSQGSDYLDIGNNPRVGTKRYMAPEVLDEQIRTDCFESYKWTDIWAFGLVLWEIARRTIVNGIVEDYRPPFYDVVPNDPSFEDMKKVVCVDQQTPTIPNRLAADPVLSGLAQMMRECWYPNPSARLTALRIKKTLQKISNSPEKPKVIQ
T5 sequence (P36894 24-532): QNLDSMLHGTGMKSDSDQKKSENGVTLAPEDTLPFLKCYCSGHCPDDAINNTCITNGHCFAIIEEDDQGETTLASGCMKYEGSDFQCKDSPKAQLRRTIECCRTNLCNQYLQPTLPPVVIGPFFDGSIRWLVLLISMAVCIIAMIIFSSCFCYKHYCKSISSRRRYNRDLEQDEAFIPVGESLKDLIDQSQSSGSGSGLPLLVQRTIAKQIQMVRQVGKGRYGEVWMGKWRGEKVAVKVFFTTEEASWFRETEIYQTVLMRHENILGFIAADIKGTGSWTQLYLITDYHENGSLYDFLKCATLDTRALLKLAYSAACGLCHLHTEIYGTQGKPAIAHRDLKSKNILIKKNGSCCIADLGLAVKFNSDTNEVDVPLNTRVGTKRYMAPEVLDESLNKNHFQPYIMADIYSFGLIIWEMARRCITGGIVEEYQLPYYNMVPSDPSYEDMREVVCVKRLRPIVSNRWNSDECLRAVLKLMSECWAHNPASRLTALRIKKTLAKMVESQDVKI
T3 sequence (Q13705 19-512): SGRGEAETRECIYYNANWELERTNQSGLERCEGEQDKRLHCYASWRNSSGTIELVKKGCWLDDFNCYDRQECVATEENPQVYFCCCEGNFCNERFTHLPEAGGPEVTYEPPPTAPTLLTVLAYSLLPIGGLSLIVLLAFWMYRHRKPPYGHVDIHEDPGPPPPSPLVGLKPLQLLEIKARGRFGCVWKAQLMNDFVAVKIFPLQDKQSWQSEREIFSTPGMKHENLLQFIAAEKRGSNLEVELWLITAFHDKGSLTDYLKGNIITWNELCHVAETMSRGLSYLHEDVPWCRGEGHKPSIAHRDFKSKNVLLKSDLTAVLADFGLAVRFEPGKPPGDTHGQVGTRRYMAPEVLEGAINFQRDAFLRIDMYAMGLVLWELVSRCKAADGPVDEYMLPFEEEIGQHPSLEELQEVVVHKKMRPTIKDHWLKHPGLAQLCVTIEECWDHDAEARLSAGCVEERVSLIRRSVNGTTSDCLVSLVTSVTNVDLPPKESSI
hERG potassium channel, sequence (Q12809 whole entry): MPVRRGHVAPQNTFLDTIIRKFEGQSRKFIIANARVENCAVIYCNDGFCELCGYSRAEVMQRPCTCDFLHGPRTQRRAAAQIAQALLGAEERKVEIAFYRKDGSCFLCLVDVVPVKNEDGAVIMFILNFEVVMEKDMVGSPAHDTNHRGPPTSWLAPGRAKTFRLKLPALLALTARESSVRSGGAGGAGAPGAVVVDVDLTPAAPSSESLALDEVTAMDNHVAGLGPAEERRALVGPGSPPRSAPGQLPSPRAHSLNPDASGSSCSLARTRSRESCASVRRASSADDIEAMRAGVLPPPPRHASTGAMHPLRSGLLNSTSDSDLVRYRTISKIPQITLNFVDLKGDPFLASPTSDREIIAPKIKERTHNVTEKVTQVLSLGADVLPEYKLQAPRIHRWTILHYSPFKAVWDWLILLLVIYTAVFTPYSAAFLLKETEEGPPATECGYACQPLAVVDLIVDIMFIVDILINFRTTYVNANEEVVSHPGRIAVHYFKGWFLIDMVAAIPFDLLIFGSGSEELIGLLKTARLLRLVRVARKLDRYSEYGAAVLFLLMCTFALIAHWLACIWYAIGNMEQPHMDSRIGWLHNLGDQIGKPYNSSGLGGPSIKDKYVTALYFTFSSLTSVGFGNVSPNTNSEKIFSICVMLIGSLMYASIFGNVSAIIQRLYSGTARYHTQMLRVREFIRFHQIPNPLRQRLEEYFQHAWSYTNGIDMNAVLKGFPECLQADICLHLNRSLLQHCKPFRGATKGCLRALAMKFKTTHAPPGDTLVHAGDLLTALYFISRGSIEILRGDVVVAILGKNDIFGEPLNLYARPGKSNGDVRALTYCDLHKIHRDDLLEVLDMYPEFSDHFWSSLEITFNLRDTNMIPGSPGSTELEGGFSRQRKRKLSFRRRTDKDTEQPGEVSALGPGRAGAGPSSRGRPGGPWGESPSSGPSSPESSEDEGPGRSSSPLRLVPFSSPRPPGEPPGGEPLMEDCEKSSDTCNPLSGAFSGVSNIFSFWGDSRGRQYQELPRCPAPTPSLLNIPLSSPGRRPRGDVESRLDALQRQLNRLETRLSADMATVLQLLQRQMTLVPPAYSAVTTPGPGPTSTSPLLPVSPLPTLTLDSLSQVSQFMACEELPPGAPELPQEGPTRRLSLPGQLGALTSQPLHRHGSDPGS
T1 sequence (O00238 14-502): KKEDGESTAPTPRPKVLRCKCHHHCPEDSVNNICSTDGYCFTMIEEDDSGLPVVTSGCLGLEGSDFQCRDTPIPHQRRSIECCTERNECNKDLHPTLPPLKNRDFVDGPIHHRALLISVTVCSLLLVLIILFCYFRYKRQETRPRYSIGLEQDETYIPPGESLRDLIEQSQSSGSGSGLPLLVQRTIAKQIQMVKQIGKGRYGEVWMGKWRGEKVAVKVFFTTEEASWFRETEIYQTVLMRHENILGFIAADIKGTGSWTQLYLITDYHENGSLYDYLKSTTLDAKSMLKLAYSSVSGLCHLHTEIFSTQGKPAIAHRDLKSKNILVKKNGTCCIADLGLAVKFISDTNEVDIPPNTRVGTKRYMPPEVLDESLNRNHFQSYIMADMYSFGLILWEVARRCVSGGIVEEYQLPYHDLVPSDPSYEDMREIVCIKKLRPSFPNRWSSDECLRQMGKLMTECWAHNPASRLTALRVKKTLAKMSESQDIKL
T2 sequence (P37173 23-567): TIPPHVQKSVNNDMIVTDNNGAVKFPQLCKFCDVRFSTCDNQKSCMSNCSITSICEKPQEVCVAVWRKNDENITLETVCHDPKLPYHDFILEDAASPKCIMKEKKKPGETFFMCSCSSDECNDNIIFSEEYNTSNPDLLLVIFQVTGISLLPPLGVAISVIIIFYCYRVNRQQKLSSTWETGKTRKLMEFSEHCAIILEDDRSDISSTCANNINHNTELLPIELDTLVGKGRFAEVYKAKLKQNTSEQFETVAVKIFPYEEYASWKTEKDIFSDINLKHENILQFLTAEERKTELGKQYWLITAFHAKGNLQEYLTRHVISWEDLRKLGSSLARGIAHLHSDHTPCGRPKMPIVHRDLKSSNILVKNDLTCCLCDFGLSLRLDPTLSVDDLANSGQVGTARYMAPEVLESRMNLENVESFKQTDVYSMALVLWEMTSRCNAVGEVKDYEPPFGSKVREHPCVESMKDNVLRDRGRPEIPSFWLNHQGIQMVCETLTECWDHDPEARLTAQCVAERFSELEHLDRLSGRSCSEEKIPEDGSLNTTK

Cc1cccc(-c2nn3c(c2-c2ccnc4ccc(O)cc24)CCC3)n1 [HYL001, 4-(2-(6-Methylpyridin-2-yl)-5,6-dihydro-4H-pyrrolo[1,2-b]pyrazol-3-yl)quinolin-6-ol]
% Compound remaining at 4 hrs ([1]; mice plasma, 37 °C): 113.1%
recovery at 4 h, 5 µM ([1]; mouse, plasma (rapid equilibrium dialysis device), pH 7.4): 112%
fraction unbound at 4 h, 5 µM ([1]; mouse, plasma, pH 7.4): 0.048
Inhibition of binding to any safety panel target [2]: ≤ 50%
% Bound Mean ± SD ([3]; human plasma, 5 µM, n=3): ~91%
% Compound remaining at 4 hrs ([3]; human plasma, 37 °C): 101.1%
recovery at 4 h, 5 µM ([3]; human, plasma (rapid equilibrium dialysis device), pH 7.4): 101%
fraction unbound at 4 h, 5 µM ([3]; human, pH 7.4, % Bound Mean ± SD, human plasma, 5 µM, n=3): 0.084
fraction unbound at 4 h, 5 µM ([3]; human, pH 7.4, % Free fraction, human plasma): 0.084
half-life ([4]; BALB/c, po): ~2.5 h
AUC(0-inf) ([4]; mice (♂ BALB/c)): 4110 ng·h/mL
AUC(0-t) ([4]; mice (♂ BALB/c)): 3520 ng·h/mL
CL/F ([4]; mice (♂ BALB/c)): 288 mL/min/kg
Cmax ([4]; mice (♂ BALB/c)): 2050 ng/mL
Tmax ([4]; mice (♂ BALB/c)): 0.25 h
Vd/F ([4]; mice (♂ BALB/c), read-out: Vss/F): 66.7 L/kg
pKd (ALK6 (BMPR1B)): 6.80
pKd (TGFBR2): 5.70
pKd (ACVR2B [5]): 7.00
pKd (ALK1 (ACVRL1) [6]): 4.96
pKd (ALK3 (BMPR1A) [7]): 5.16
hERG inhibition (in words) (hERG potassium channel): low inhibition
% Free fraction ([8]; rat plasma): 4.9%
% Compound remaining at 4 hrs ([8]; rat plasma, 37 °C): 106.1%
recovery at 4 h, 5 µM ([8]; rat, plasma (rapid equilibrium dialysis device), pH 7.4): 100%
fraction unbound at 4 h, 5 µM ([8]; rat, plasma, pH 7.4): 0.049

Cc1cccc(-c2nn3c(c2-c2ccnc4ccc(C(N)=O)cc24)CCC3)n1 [galunisertib]
pKd (ALK3 (BMPR1A) [9]): 4.77
CL/F [10]: 402 mL/min/kg
pKd (ACVR2B [11]): 6.16
pKd (ALK1 (ACVRL1) [12]): 4.60
pKd (ALK2 (ACVR1)): 4.45
